{"source": "ChEMBL document CHEMBL1157703", "about": "“Synthesis, pharmacological studies and molecular modeling of some tetracyclic 1,3-diazepinium chlorides” (Bioorg Med Chem, 2010)", "key": {"[1]": {"biological_target": "Sodium-dependent noradrenaline transporter (Homo sapiens) (UniProt P23975)", "sequence (P23975 whole entry)": "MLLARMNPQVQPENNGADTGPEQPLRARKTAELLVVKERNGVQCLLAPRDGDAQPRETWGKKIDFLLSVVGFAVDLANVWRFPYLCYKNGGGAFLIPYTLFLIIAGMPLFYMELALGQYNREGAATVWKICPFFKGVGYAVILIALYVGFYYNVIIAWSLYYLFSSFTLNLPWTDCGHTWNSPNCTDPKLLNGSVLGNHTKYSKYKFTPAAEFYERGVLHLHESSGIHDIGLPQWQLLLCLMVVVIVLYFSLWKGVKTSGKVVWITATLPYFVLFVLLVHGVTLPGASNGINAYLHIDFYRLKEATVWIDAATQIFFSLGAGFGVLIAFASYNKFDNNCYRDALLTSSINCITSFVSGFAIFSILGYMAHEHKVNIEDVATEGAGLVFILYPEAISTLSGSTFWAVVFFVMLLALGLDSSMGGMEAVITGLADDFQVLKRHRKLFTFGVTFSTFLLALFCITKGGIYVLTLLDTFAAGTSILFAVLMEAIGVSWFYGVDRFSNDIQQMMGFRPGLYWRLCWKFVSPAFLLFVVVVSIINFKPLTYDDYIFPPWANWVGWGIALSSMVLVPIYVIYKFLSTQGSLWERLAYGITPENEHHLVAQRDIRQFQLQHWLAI", "assay": "Inhibition of NET PDSP analysis"}, "[2]": {"biological_target": "Sodium-dependent serotonin transporter (Homo sapiens) (UniProt P31645)", "sequence (P31645 whole entry, looked up)": "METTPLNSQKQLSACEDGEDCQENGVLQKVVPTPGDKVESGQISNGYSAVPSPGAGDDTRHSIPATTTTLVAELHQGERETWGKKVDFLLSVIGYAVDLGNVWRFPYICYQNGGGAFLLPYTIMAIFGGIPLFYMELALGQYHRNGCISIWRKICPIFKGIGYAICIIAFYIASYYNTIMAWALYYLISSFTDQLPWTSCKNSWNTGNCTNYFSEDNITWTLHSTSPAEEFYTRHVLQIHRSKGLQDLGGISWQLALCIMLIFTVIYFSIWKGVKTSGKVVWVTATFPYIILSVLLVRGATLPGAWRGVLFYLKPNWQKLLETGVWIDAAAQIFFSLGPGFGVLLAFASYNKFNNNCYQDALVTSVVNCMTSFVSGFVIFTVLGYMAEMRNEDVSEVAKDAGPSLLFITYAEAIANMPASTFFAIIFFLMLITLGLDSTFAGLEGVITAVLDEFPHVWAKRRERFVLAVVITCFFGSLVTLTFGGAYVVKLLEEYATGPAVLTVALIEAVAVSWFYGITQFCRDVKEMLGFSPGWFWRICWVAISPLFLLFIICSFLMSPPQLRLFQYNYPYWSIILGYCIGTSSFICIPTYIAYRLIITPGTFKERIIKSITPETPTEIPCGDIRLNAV", "assay": "Inhibition of SERT PDSP analysis", "set-up": "scale not given: the % may be the effect or the level left"}, "[3]": {"test_system": "Mus musculus", "assay": "CNS toxicity in Albino mouse assessed as anesthetic response at 0.2 ml/10 g by hippocratic screen", "type": "organism-based", "settings": "in vivo"}, "[4]": {"species": "Mus musculus", "assay": "Effect on behavioral activity in Albino mouse assessed as inhibition of diazepam-induced paralysis at 0.2 ml/10 g by hippocratic screen", "type": "functional, organism-based"}, "[5]": {"species": "Mus musculus", "assay": "CNS toxicity in Albino mouse assessed as change in respiratory rate at 0.2 ml/10 g by hippocratic screen", "type": "organism-based", "settings": "in vivo"}, "[6]": {"species": "Mus musculus", "assay": "CNS toxicity in Albino mouse assessed as startle reaction at 0.2 ml/10 g by hippocratic screen", "type": "organism-based", "settings": "in vivo"}, "[7]": {"species": "Mus musculus", "assay": "Effect on behavioral activity in Albino mouse assessed as inhibition of diazepam-induced loss of righting reflex at 0.2 ml/10 g after 2 hrs by hippocratic screen", "type": "functional, organism-based"}, "[8]": {"species": "Mus musculus", "assay": "CNS toxicity in Albino mouse assessed as loss of righting reflex at 0.2 ml/10 g by hippocratic screen", "type": "organism-based", "settings": "in vivo"}, "[9]": {"species": "Mus musculus", "assay": "Effect on behavioral activity in Albino mouse assessed as inhibition of diazepam-induced tremors at 0.2 ml/10 g by hippocratic screen", "type": "functional, organism-based"}, "[10]": {"species": "Mus musculus", "assay": "Effect on behavioral activity in Albino mouse assessed as inhibition of diazepam-induced loss of analgesia at 0.2 ml/10 g by hippocratic screen", "type": "functional, organism-based"}, "[11]": {"species": "Mus musculus", "assay": "CNS toxicity in Albino mouse assessed as pinnal reflex at 0.2 ml/10 g by hippocratic screen", "type": "organism-based", "settings": "in vivo"}, "[12]": {"species": "Mus musculus", "assay": "CNS toxicity in Albino mouse assessed as loss of analgesic activity at 0.2 ml/10 g by hippocratic screen", "type": "organism-based", "settings": "in vivo"}, "[13]": {"species": "Mus musculus", "assay": "CNS toxicity in Albino mouse assessed as ataxia at 0.2 ml/10 g by hippocratic screen", "type": "organism-based", "settings": "in vivo"}, "[14]": {"species": "Mus musculus", "assay": "Effect on behavioral activity in Albino mouse assessed as inhibition of diazepam-induced decrease in respiratory rate at 0.2 ml/10 g by hippocratic screen", "type": "functional, organism-based"}, "[15]": {"species": "Mus musculus", "assay": "CNS toxicity in Albino mouse assessed as tremors at 0.2 ml/10 g by hippocratic screen", "type": "organism-based", "settings": "in vivo"}, "[16]": {"species": "Mus musculus", "assay": "Effect on behavioral activity in Albino mouse assessed as inhibition of diazepam-induced anesthesia at 0.2 ml/10 g by hippocratic screen", "type": "functional, organism-based"}, "[17]": {"species": "Mus musculus", "assay": "Effect on behavioral activity in Albino mouse assessed as inhibition of diazepam-induced loss of righting reflex at 0.2 ml/10 g after 1 hr by hippocratic screen", "type": "functional, organism-based"}, "[18]": {"species": "Mus musculus", "assay": "Effect on behavioral activity in Albino mouse assessed as inhibition of diazepam-induced startle reaction at 0.2 ml/10 g by hippocratic screen", "type": "functional, organism-based"}, "[19]": {"species": "Mus musculus", "assay": "Effect on behavioral activity in Albino mouse assessed as inhibition of diazepam-induced ataxia at 0.2 ml/10 g after 5 mins by hippocratic screen", "type": "functional, organism-based"}, "[20]": {"species": "Mus musculus", "assay": "Effect on behavioral activity in Albino mouse assessed as inhibition of diazepam-induced loss of screen grip at 0.2 ml/10 g by hippocratic screen", "type": "functional, organism-based"}, "[21]": {"species": "Mus musculus", "assay": "Effect on behavioral activity in Albino mouse assessed as inhibition of diazepam-induced pinnal reflex at 0.2 ml/10 g by hippocratic screen", "type": "functional, organism-based"}, "[22]": {"species": "Mus musculus", "assay": "CNS toxicity in Albino mouse assessed as loss of screen grip at 0.2 ml/10 g by hippocratic screen", "type": "organism-based", "settings": "in vivo"}, "[23]": {"species": "Mus musculus", "assay": "CNS toxicity in Albino mouse assessed as paralysis at 0.2 ml/10 g by hippocratic screen", "type": "organism-based", "settings": "in vivo"}, "[24]": {"species": "Mus musculus", "assay": "CNS toxicity in Albino mouse assessed as decrease in motor activity at 0.2 ml/10 g by hippocratic screen", "type": "organism-based", "settings": "in vivo"}, "[25]": {"species": "Mus musculus", "assay": "Effect on behavioral activity in Albino mouse assessed as inhibition of diazepam-induced decrease in motor activity at 0.2 ml/10 g for 10 to 15 mins by hippocratic screen", "type": "functional, organism-based"}}, "note": "Active and inactive are the calls of the source. The rule behind the calls is not given here."}
{"smiles": "NC[C@H](O)c1ccc(O)c(O)c1", "values": [{"measurement": "Ki", "setting": "[1]", "result": "> 10", "unit": "µM"}]}
{"smiles": "NCCc1c[nH]c2ccc(O)cc12", "values": [{"measurement": "Activity", "setting": "[2]", "result": "> 10000", "unit": "%"}]}
{"smiles": "COc1ccc2c3c(oc2c1)C(=O)Nc1cc(C)cc[n+]1C3.[Cl-]", "values": [{"measurement": "Activity", "setting": "[3]", "result": "Non-toxic"}, {"measurement": "Activity", "setting": "[4]", "result": "inactive"}, {"measurement": "Activity", "setting": "[5]", "result": "Non-toxic"}, {"measurement": "Activity", "setting": "[6]", "result": "Non-toxic"}, {"measurement": "Activity", "setting": "[7]", "result": "inactive"}, {"measurement": "Activity", "setting": "[8]", "result": "Non-toxic"}, {"measurement": "Activity", "setting": "[9]", "result": "inactive"}, {"measurement": "Activity", "setting": "[10]", "result": "inactive"}, {"measurement": "Activity", "setting": "[11]", "result": "Non-toxic"}, {"measurement": "Activity", "setting": "[12]", "result": "Non-toxic"}, {"measurement": "Activity", "setting": "[13]", "result": "Non-toxic"}, {"measurement": "Activity", "setting": "[14]", "result": "inactive"}, {"measurement": "Activity", "setting": "[15]", "result": "Non-toxic"}, {"measurement": "Activity", "setting": "[16]", "result": "inactive"}, {"measurement": "Activity", "setting": "[17]", "result": "Active"}, {"measurement": "Activity", "setting": "[18]", "result": "inactive"}, {"measurement": "Activity", "setting": "[19]", "result": "inactive"}, {"measurement": "Activity", "setting": "[20]", "result": "inactive"}, {"measurement": "Activity", "setting": "[21]", "result": "inactive"}, {"measurement": "Activity", "setting": "[22]", "result": "Non-toxic"}, {"measurement": "Activity", "setting": "[23]", "result": "Non-toxic"}, {"measurement": "Activity", "setting": "[24]", "result": "Non-toxic"}, {"measurement": "Activity", "setting": "[25]", "result": "Active"}]}
